Values of other authors in patent US9655910B2, “Compositions and methods for treating addiction” (BODYBIO INC., priority 2014, dated 2017).

Columns and labels:
[1] = molecular target: CB1 cannabinoid receptor (Rattus norvegicus, UniProt P20272)
[2] = molecular target: CB2 receptor (Homo sapiens, UniProt P34972); conditions: compared with CB1
[3] = system: mice

Chain of CB2 receptor (P34972 whole entry): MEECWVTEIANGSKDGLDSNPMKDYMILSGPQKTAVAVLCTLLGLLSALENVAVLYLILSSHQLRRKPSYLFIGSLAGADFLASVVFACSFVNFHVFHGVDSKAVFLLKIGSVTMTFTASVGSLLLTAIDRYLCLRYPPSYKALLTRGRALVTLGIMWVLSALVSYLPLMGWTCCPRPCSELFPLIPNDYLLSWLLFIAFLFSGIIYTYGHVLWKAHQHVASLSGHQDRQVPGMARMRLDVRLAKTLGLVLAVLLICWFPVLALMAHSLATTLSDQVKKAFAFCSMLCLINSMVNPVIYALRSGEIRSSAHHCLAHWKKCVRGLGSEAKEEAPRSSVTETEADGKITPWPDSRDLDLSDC
Chain of CB1 cannabinoid receptor (P20272 whole entry): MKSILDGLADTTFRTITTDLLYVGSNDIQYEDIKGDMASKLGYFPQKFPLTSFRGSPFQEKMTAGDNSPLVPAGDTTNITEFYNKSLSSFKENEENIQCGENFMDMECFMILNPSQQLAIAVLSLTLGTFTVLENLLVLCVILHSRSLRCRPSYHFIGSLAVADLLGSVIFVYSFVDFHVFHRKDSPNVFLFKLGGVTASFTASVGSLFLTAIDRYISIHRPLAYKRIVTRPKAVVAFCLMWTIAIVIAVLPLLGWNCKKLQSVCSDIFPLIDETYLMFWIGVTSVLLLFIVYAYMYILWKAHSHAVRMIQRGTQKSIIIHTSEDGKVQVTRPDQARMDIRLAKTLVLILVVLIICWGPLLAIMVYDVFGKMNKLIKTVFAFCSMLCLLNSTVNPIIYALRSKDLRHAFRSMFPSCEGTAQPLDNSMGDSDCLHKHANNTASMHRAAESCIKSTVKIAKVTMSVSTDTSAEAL

CCCCCC=CCC=CCC=CCC=CCCCCOC(CO)CO [Noladin ether, 2-arachidonyl glyceryl ether]
Ki [1]: 21.2 nM
binding to the CB2 receptor [2]: only weakly
effects caused in mice [3]: sedation, hypothermia, intestinal immobility, and mild antinociception
